From patent publication US10328092B2, “Methods and compositions for treatment of drug addiction” (The Royal Institution for the Advancement of Learning / …, priority 2015, dated 2019)
Where a name gives a salt, the structure may show the parent alone.

Experiments:
[1] = tested on: primary rat microglia cultures; test: TNFα mRNA in primary rat microglia cultures; type: cell-based; conditions: agonist 1 μm, 3 h
Description: For tissue, total RNA from the ventral striatum was extracted and isolated by RNAqueous-4PCR total RNA isolation kit (Ambion, AM1914), according to manufacturer's instructions. For microglia and astrocyte cultures, total RNA was isolated by RNeasy kit (Qiagen, 74136). For all sample types, 0.5 μg of total RNA was used for cDNA synthesis with Quantitect Reverse Transcription Kit (Qiagen, 205313), and quantitative RT-PCR was performed with Fast SYBR-Green Master Mix (Applied Biosystems) detected by StepOne Plus RealTime PCR system (Applied Biosystems). The sequences of qPCR primers used for mRNA quantification in this study were obtained from Integrated DNA Technologies, and are as follows: mouse TNFα forward, […] (SEQ ID NO: 1) [200 nM]; mouse TNFα reverse, […] (SEQ ID NO: 2) [200 nM]; mouse GAPDH forward, […] (SEQ ID NO: 3) [300 nM]; mouse GAPDH reverse, […] (SEQ ID NO: 4) [300 nM]; rat TNFα forward, […] (SEQ ID NO: 1) [600 nM]; rat TNFα reverse, […] (SEQ ID NO: 5) [600 nM]; rat cyclophilin forward, […] (SEQ ID NO: 6) [500 nM]; rat cyclophilin reverse, […] (SEQ ID NO: 7) [500 nM]. After 40 cycles, the Ct values were determined. To normalize the samples, ΔCt between TNFα and GADPH or cyclophilin Ct values was calculated. The x-fold difference in expression between the different treatments was then determined by subtraction of the ΔCt values and termed ΔΔCt. Finally, the total change was calculated as 2-ΔΔct and the relative amount compared with control samples was deducted.
Mixed microglia-astrocyte primary cultures were prepared from the striatum of postnatal rats (day 0), essentially as described (Beattie et al., 2002). Briefly, tissue was dissociated by […], and cells were seeded in glia media (MEM containing 5% FBS, 1.5% high sucrose MEM and 0.1% glutamax) on culture flasks (Corning) coated with poly-D lysine (Sigma) and placed in a humidified incubator at 37 C with 5% CO2. Neurons were removed by mechanical disruption and the medium was changed at day 1, and every 5-7 days after. […]

[2] = tested on: D1-MSNs in the NAc core; test: AMPA/NMDA ratio on D1-MSNs after in vivo treatment; design: species or system mouse; conditions: L741,626 i.p. 3 mg/kg co-administered with daily cocaine over 5 days
Description: (§1) Repeated non-contingent administration of cocaine results in lower AMPA/NMDA ratios of excitatory inputs onto the NAc specifically on the D1-MSN subtype (Kim et al., 2011; Pascoli et al., 2012). To test whether the decrease in AMPA/NMDA ratios after repeated drug administration is due to the increase in TNFα expression, the AMPA/NMDA ratio was evaluated on D1 and D2 MSNs in the NAc core following cocaine or saline administration in WT and TNFα^−/− mice. […] This is consistent with the exocytosis of AMPARs observed with direct stimulation of D1Rs on MSNs (Mangiavacchi and Wolf, 2004). […] To test the hypothesis that potentiated D1-MSNs are more sensitive to TNFα, TNFα mice were treated with a single injection of cocaine and the effect of a low level of TNFα (10 ng/ml) on AMPA/NMDA ratios was evaluated. […] This treatment had no effect on D2-MSNs (FIG. 9B). To test whether cocaine-induced TNFα signaling would occlude further TNFα synaptic depression, wildtype animals were treated with cocaine for 5 days, and then treated striatel slices ex-vivo with TNFα (100 ng/ml). The AMPA/NMDA ratio on D1-MSNs (already reduced compared to saline treated animals; FIG. 5E) was not further reduced by treatment with TNFα (FIG. 5G).
Because depotentiation of MSNs reduced cocaine-induced behavioural sensitization (Pascoli et al., 2012), it was tested whether re-activation of microglia would depress NAc synapses and suppress sensitization. To do this, monophosphoryl lipid A (MPLA), a detoxified variant of LPS, was used (Casella and Mitchell, 2008). MPLA acts as a weak TLR4 agonist that is at least 100-fold less pyrogenic than LPS (Cluff, 2010) and is used in humans as an adjuvant for several vaccine formulations. […] It was verified that MPLA activates microglia in the striatum, by injecting 10 μg MPLA IP after 10 days withdrawal from cocaine. […] This is consistent with previous observations that MPLA acts as a microglia modulator (Michaud et al., 2013). […] It was next tested if MPLA treatment would depress synaptic strength in the NAc core. After 10 days of withdrawal, animals were injected with MPLA and evaluated 24 hours later for AMPA/NMDA ratios on D1-MSNs.
240 μm thick coronal slices containing the nucleus accumbens were prepared from brains of 8-9 week-old mice (with fluorescent D1-MSNs). After a 1 h recovery period, slices were placed in a submersion-type recording chamber and perfused (1.5-2 ml/min) at 30° C. with a bicarbonate-buffered artificial CSF saturated with 95% O2/5% CO2 and containing (in mM): 119 NaCl, 2.5 KCl, 1 NaH2PO4, 1.3 MgCl2, 2.5 CaCl2, 26.2 NaHCO3, 11 glucose, and 0.05 picrotoxin. Whole-cell voltage-clamp recordings from medium spiny neurons in the nucleus accumbens core were obtained under visual control using infrared-differential interference contrast microscopy. Whole-cell electrodes (2-4 MΩ) were filled with internal solution containing the following (in mM): 120 CsMeSO3, 15 CsCl, 8 NaCl, 0.2 EGTA, 10 HEPES, 2 Mg-ATP, 0.3 Na-GTP, 10 tetraethylammonium, and 5 QX-314 [5-N-(2,6-dimethylphenylcarbamoylmethyl)triethylammonium bromide] (308-310 mOsm). pH was adjusted to 7.3 with CsOH. Cells with series resistance above 25 MΩ or a 20% change over time were excluded. Synaptic currents were evoked using stainless-steel bipolar stimulating electrodes placed 100-150 μm rostral to the recorded neurons. EPSCs were acquired with an Axopatch 200B (Molecular Devices), filtered at 2 kHz, and digitized at 10 kHz. Acquisition and analysis was performed using pCLAMP 10.2 (Molecular Devices). To calculate AMPA/NMDA ratios, evoked synaptic responses were collected at −70 mV to measure AMPAR-mediated EPSCs and at +40 mV to measure NMDAR-mediated EPSCs. Typically, 20 responses were averaged to generate an average response. The peak AMPA response was used to calculate the AMPAR component and the amplitude at 40 ms post the AMPAR peak response was used to calculate the slower NMDA component at +40 mV to calculate the AMPA/NMDA ratio.

[3] = tested on: TNFα; test: TNFα mRNA / protein in ventral striatum (NAc) after in vivo treatment; design: species or system mouse; conditions: L741,626 i.p. 3 mg/kg 15 min before daily cocaine, 5 days; adult mice
Description: To determine the effect of in vivo cocaine exposure on TNFα levels in the ventral striatum, TNFα mRNA and protein levels were measured in mice given intraperitoneal injections of saline or cocaine. […] To understand the impact of TNFα on synaptic function in the NAc, AMPA/NMDA ratios were measured at glutamatergic synapses on MSNs in the NAc core. Alteration in NAc core AMPA receptors are involved in the expression of behavioral sensitization to psychostimulants (Kalives, 2009).
Mice (8-10 weeks) were perfused and their brains submerged overnight in 4% PFA, cryoprotected with 30% sucrose, and cut in 30 μm thick coronal slices using a cryostat. The sections were incubated for 4 hours with blocking solution (2% normal goat serum, 3% BSA, 0.2% Triton X-100 in PBS) before incubation overnight at 4 C with primary antibodies in blocking solution (rabbit anti-Iba1 antibody [019-19741, Wako; 1:800; RRID: AB_2566825], chicken anti-GFAP antibody [AB5541, Millipore; 1:500; RRID: AB_177521], rabbit anti-NeuN [ab104225, Abcam, 1:400; RRID: AB_10711153], and rabbit anti-TNFα antibody [ab6671, Abcam, 1:100; RRID: AB_305641] or mouse anti-TNFα antibody [ab1793, Abcam, 1:100; RRID: AB_302615]). Sections were washed (2×15 min with PBST [0.05% Tween20] and 1×15 min with PBS at RT) and incubated for 2 hrs at room temperature in secondary antibodies (anti-rabbit, anti-chicken, or anti-mouse IgG-conjugated Alexa Fluorochrome [Invitrogen; 1:400]). Sections were washed and briefly (<30 seconds) incubated with Hoechst 33342 [H1399, Molecular Probes; 1:10,000] in PBS. The stained sections were imaged using an Olympus FluoView FV1000 confocal microscope with Fluoview imaging software (FV10-ASW). Images of the ventral striatum (nucleus accumbens core and shell) were acquired with a 40× or 60× objective and stacks of 25-30 optical sections (1 μm per section) of depth were Z-projected into a single window and analysed using ImageJ software (NIH).
The number of Iba1+ microglia were manually counted from 212×212 μm (60× objectives) or 317×317 μm (40× objectives) images. TNFα intensity was measured using the mean grey value of the entire image while Iba1 intensity measurements were obtained using a thresholded area to highlight only the microglia. Cell body area (μm^2) was measured based on Iba1 staining and using the freehand selection tool. Additional analysis of microglia morphology in saline and cocaine treated mice was done using IMARIS software (Bitplane). […] The following parameters were analyzed for 40 microglia per group: total process length (sum of length of all processes), total process volume, process diameter and number of branch points and terminals. […]
After 40 cycles, the Ct values were determined.

[4] = tested on: D1-MSNs in the NAc core; test: AMPA/NMDA ratio, acute NAc slices treated ex-vivo with TNFα, D1-MSNs; type: cell-based, mouse; conditions: for mean AMPA/NMDA ratio, D1 MSNs: NAc core
Description: (§2) It has been previously shown that TNFα drives internalization of AMPARs on MSNs in the dorsal striatum (Lewitus et al., 2014). As repeated cocaine administration primarily affects direct-pathway MSNs, specific subpopulations of MSNs in the NAc core were tested for their response to TNFα. Acute NAc slices were incubated with TNFα (10 ng/ml or 100 ng/ml) and whole-cell recording were made for Drd1a-td Tomato (D1) positive and negative (D2) MSNs. […] A low dose of TNFα (10 ng/ml) had no significant effect on either cell type.
as §1
. After a 1 h recovery period, slices were placed in a submersion-type recording chamber and perfused (1.5-2 ml/min) at 30° C. with a bicarbonate-buffered artificial CSF saturated with 95% O2/5% CO2 and containing (in mM): 119 NaCl, 2.5 KCl, 1 NaH2PO4, 1.3 MgCl2, 2.5 CaCl2, 26.2 NaHCO3, 11 glucose, and 0.05 picrotoxin. Whole-cell voltage-clamp recordings from medium spiny neurons in the nucleus accumbens core were obtained under visual control using infrared-differential interference contrast microscopy. Whole-cell electrodes (2-4 MΩ) were filled with internal solution containing the following (in mM): 120 CsMeSO3, 15 CsCl, 8 NaCl, 0.2 EGTA, 10 HEPES, 2 Mg-ATP, 0.3 Na-GTP, 10 tetraethylammonium, and 5 QX-314 [5-N-(2,6-dimethylphenylcarbamoylmethyl)triethylammonium bromide] (308-310 mOsm). pH was adjusted to 7.3 with CsOH. Cells with series resistance above 25 MΩ or a 20% change over time were excluded. Synaptic currents were evoked using stainless-steel bipolar stimulating electrodes placed 100-150 μm rostral to the recorded neurons. […]

[5] = tested on: D2-MSNs in the NAc core; test: AMPA/NMDA ratio, acute NAc slices treated ex-vivo with TNFα, D2-MSNs; type: cell-based, mouse; conditions: for mean AMPA/NMDA ratio, D2 MSNs: NAc core
Description: as §2, §1
. […] Synaptic currents were evoked using stainless-steel bipolar stimulating electrodes placed 100-150 μm rostral to the recorded neurons. […]

How did the “change in TNFα mRNA in primary rat microglia cultures” value [1] turn out when `CCCN[C@H]1CCc2nc(N)sc2C1` [pramipexole, pramipexole dihydrochloride] was run?
The value was “did not affect”.

Which “change in TNFα mRNA in primary rat microglia cultures” value [1] does the source give for `Oc1cc2c(cc1O)C(c1ccccc1)CNCC2` (centres unmarked) [SKF-38393] here?
The value was “had no effect”.

With `OC1(c2ccc(Cl)cc2)CCN(Cc2c[nH]c3ccccc23)CC1` [L741,626] as the compound, how does the “AMPA/NMDA ratio on D1-MSNs vs cocaine alone” value [2] read?
Its value is “increase”.

And the “TNFα mRNA in ventral striatum tissue” value [3]?
Its value is “significantly decreases”.

What does the source list for Tumor necrosis factor alpha [TNFα]?
mean AMPA/NMDA ratio, D1-MSNs ([4]; TNFα−/− mice treated 24 hours prior with cocaine, 10 ng/ml TNFα ex-vivo): 3.08±0.42; mean AMPA/NMDA ratio, D1 MSNs ([4]; slices treated with 10 ng/ml TNFα (printed D1(10 ug TNF))): 3.1±0.52; mean AMPA/NMDA ratio, D1 MSNs ([4]; slices treated with 100 ng/ml TNFα (printed D1(100 ug TNF))): 2.42±0.23; mean AMPA/NMDA ratio, D1-MSNs ([4]; wildtype mice after 5 daily cocaine injections, 100 ng/ml TNFα ex-vivo): 4.06±0.46; effect on AMPA/NMDA ratios in D2-MSNs ([5]; TNFα-KO mice, cocaine 24 hours prior, 10 ng/ml TNFα ex-vivo): had no effect; mean AMPA/NMDA ratio, D2 MSNs ([5]; slices treated with 10 ng/ml TNFα (printed D2(10 ug TNF))): 2.78±0.34; mean AMPA/NMDA ratio, D2 MSNs ([5]; slices treated with 100 ng/ml TNFα (printed D2(100 ug TNF))): 2.02±0.18
